Read-outs that look alike come from different tables or passages of the source.
Columns and labels:
Format in all cases: cell-based
Bacteriophage MS2 = assay: Viral load reduction test (ASTM E2721-16, MS2 in place of Influenza A) on plasma-coated substrate
[1] = tested on: Staphylococcus aureus (gram-positive); assay: Antibacterial activity of plasma-coated material (OECD guideline, ISO 22197/20743), gram-positive; details: S. aureus
[2] = tested on: Escherichia coli (gram-negative); assay: Antibacterial activity of plasma-coated material (OECD guideline, ISO 22197/20743), gram-negative; details: E. coli
[3] = plasma coating from precursor on Tyvek substrate, MS2 phages, vs untreated control, LOD = limit of detection
[4] = PPNW substrate (polypropylene nonwoven, 25 g/m^2)
[5] = synthetic textile substrate (Tyvek)

Row | Compound | LOG Reduction (Bacteriophage MS2; [3]) | %Gram+ bacteria reduced [1, 4] [%] | Gram+ log reduction [1, 4] [log] | %Gram+ bacteria reduced [1, 5] [%] | Gram+ log reduction [1, 5] [log] | % Gram-bacteria reduced [2, 4] [%] | Gram-log reduction [2, 4] [log] | % Gram-bacteria reduced [2, 5] [%] | Gram-log reduction [2, 5] [log] | LOG Reduction (Bacteriophage MS2)
1 | C=CC(=O)NCCC[N+](C)(C)C.[Cl-] [APTAC, (3-Acrylamidopropyl)trimethylammonium chloride] | 2.1 log |  |  |  |  |  |  |  |  | 
2 | C=C(C)C(=O)OCCN(C)C [DIMAEMA, 2-(N,N-dimethylamino)ethyl methacrylate] |  | > 99.994 | > 4.2 | > 99.95 | > 3.3 | > 99.9996 | > 5.4 | 20.6 | 0.1 | 
3 | CCCCCCCCCCCCCCCCCC[N+](C)(C)CCC[Si](OC)(OC)OC.[Cl-] [SiQAM, Dimethyloctadecyl[3-(trimethoxysilyl)propyl] ammonium chloride solution] | 1.56 log | > 99.994 | > 4.2 | > 99.95 | > 3.3 | > 99.9996 | > 5.4 | > 98.7 | > 1.9 | 
4 | Benzalkonium chloride [reference compound] |  | > 99.994 | > 4.2 | > 99.5 | > 3.3 |  | 5.4 |  | 1.9 | > 3.8 (LOD) log
5 | O=C(O)CC(O)(CC(=O)O)C(=O)O [Citric acid] | > 5.0 (LOD) log | > 99.995 | > 4.3 | > 99.98 | > 3.8 | > 99.999 | > 5.0 | 97.5 | 1.6 | 

From US20230201870A1, “PLASMA COATING METHOD AND APPARATUS FOR BIOLOGICAL SURFACE MODIFICATION” (MOLECULAR PLASMA GROUP S.A., priority 2020, published 2023)
